# Measured values taken from ChEMBL document CHEMBL3885861, “Open TG-GATES”.
# Organism: Rattus norvegicus
# Assay: Open TG-GATES - Regimen: Single
# Format: toxicity, organism-based, Sprague-Dawley
# Parameters: regimen Single, gender Male, age 6 weeks
# Conditions: in vivo, po, 200 mg/kg, route gavage, dose level Middle; for APTT / Bas / Eos / Fbg / Hb / Ht / Lym / MCH / MCHC / MCV / Mono / Neu / PT / Plat / RBC / Ret / WBC: tissue Blood; for KIDNEY_L / KIDNEY_R / KIDNEY_TOTAL: tissue Kidney; for LIVER: tissue Liver; for A/G / ALP / ALT / AST / BUN / CRE / Ca / Cl / DBIL / GLC / IP / K / LDH / Na / PL / RALB / TBIL / TC / TG / TP / gamma-GTP: tissue Plasma
compound,measurement,setting,value
CCOC(=O)[C@H](CCc1ccccc1)N[C@@H](C)C(=O)N1CCC[C@H]1C(=O)O,TERMINAL_BW,3 h,221.1 g
same,APTT,3 h,15.6 s
same,Bas,3 h,0%
same,Eos,3 h,1%
same,Fbg,3 h,207 mg/dL
same,Hb,3 h,13.1 g/dL
same,Ht,3 h,39.7%
same,Lym,3 h,81.6%
same,MCH,3 h,22.2 pg
same,MCHC,3 h,33.1%
same,MCV,3 h,67.1 fL
same,Mono,3 h,5%
same,Neu,3 h,12.4%
same,PT,3 h,12 s
same,Plat,3 h,117.9 x10_4/uL
same,RBC,3 h,591.2 x10_4/ul
same,Ret,3 h,9.1%
same,WBC,3 h,93.8 x10_2/uL
same,KIDNEY_L,3 h,1 g
same,KIDNEY_R,3 h,1 g
same,KIDNEY_TOTAL,3 h,2.1 g
same,LIVER,3 h,10.4 g
same,A/G,3 h,1.8
same,ALP,3 h,823.4 IU/L
same,ALT,3 h,45.2 IU/L
same,AST,3 h,67 IU/L
same,BUN,3 h,21.2 mg/dL
same,CRE,3 h,0.5 mg/dL
same,Ca,3 h,10.8 mg/dL
same,Cl,3 h,107.2 meq/L
same,DBIL,3 h,0.01 mg/dL
same,GLC,3 h,205.4 mg/dL
same,IP,3 h,9.1 mg/dL
same,K,3 h,5.5 meq/L
same,LDH,3 h,101.8 IU/L
same,Na,3 h,139 meq/L
same,PL,3 h,129.8 mg/dL
same,RALB,3 h,3.4 g/dL
same,TBIL,3 h,0.3 mg/dL
same,TC,3 h,72.2 mg/dL
same,TG,3 h,82 mg/dL
same,TP,3 h,5.3 g/dL
same,gamma-GTP,3 h,1.6 IU/L
same,TERMINAL_BW,6 h,215 g
same,APTT,6 h,16.6 s
same,Bas,6 h,0%
same,Eos,6 h,1%
same,Fbg,6 h,208.6 mg/dL
same,Hb,6 h,13 g/dL
same,Ht,6 h,39.7%
same,Lym,6 h,75%
same,MCH,6 h,21.2 pg
same,MCHC,6 h,32.7%
same,MCV,6 h,64.7 fL
same,Mono,6 h,9.6%
same,Neu,6 h,14.4%
same,PT,6 h,11.9 s
same,Plat,6 h,109.6 x10_4/uL
same,RBC,6 h,615.4 x10_4/ul
same,Ret,6 h,8.9%
same,WBC,6 h,113.1 x10_2/uL
same,KIDNEY_L,6 h,1 g
same,KIDNEY_R,6 h,1 g
same,KIDNEY_TOTAL,6 h,1.9 g
same,LIVER,6 h,9.8 g
same,A/G,6 h,2.1
same,ALP,6 h,770.4 IU/L
same,ALT,6 h,43.2 IU/L
same,AST,6 h,63.2 IU/L
same,BUN,6 h,22 mg/dL
same,CRE,6 h,0.5 mg/dL
same,Ca,6 h,11 mg/dL
same,Cl,6 h,105.6 meq/L
same,DBIL,6 h,0.022 mg/dL
same,GLC,6 h,195.4 mg/dL
same,IP,6 h,10.4 mg/dL
same,K,6 h,5.1 meq/L
same,LDH,6 h,91.6 IU/L
same,Na,6 h,139 meq/L
same,PL,6 h,144.6 mg/dL
same,RALB,6 h,3.6 g/dL
same,TBIL,6 h,0.5 mg/dL
same,TC,6 h,79.2 mg/dL
same,TG,6 h,53.8 mg/dL
same,TP,6 h,5.3 g/dL
same,gamma-GTP,6 h,1.2 IU/L
same,TERMINAL_BW,9 h,214.6 g
same,APTT,9 h,15.7 s
same,Bas,9 h,0%
same,Eos,9 h,1.2%
same,Fbg,9 h,207.2 mg/dL
same,Hb,9 h,12.8 g/dL
same,Ht,9 h,39.2%
same,Lym,9 h,71.6%
same,MCH,9 h,21.4 pg
same,MCHC,9 h,32.6%
same,MCV,9 h,65.4 fL
same,Mono,9 h,10.2%
same,Neu,9 h,17%
same,PT,9 h,12.1 s
same,Plat,9 h,108.6 x10_4/uL
same,RBC,9 h,599.4 x10_4/ul
same,Ret,9 h,8.8%
same,WBC,9 h,88.4 x10_2/uL
same,KIDNEY_L,9 h,1.1 g
same,KIDNEY_R,9 h,1 g
same,KIDNEY_TOTAL,9 h,2.1 g
same,LIVER,9 h,8.8 g
same,A/G,9 h,2.1
same,ALP,9 h,931.6 IU/L
same,ALT,9 h,36.2 IU/L
same,AST,9 h,65.8 IU/L
same,BUN,9 h,25.8 mg/dL
same,CRE,9 h,0.4 mg/dL
same,Ca,9 h,10.8 mg/dL
same,Cl,9 h,108 meq/L
same,DBIL,9 h,0.03 mg/dL
same,GLC,9 h,189.4 mg/dL
same,IP,9 h,10.8 mg/dL
same,K,9 h,5.2 meq/L
same,LDH,9 h,83.8 IU/L
same,Na,9 h,139.4 meq/L
same,PL,9 h,120.4 mg/dL
same,RALB,9 h,3.5 g/dL
same,TBIL,9 h,0.4 mg/dL
same,TC,9 h,69.4 mg/dL
same,TG,9 h,32.2 mg/dL
same,TP,9 h,5.2 g/dL
same,gamma-GTP,9 h,2.2 IU/L
same,TERMINAL_BW,24 h,230.9 g
same,APTT,24 h,15.8 s
same,Bas,24 h,0%
same,Eos,24 h,1.8%
same,Fbg,24 h,222.8 mg/dL
same,Hb,24 h,13 g/dL
same,Ht,24 h,39.2%
same,Lym,24 h,71.2%
same,MCH,24 h,21.4 pg
same,MCHC,24 h,33.1%
same,MCV,24 h,64.8 fL
same,Mono,24 h,8.8%
same,Neu,24 h,18%
same,PT,24 h,10.8 s
same,Plat,24 h,115.7 x10_4/uL
same,RBC,24 h,606 x10_4/ul
same,Ret,24 h,8.6%
same,WBC,24 h,90.5 x10_2/uL
same,KIDNEY_L,24 h,1.1 g
same,KIDNEY_R,24 h,1 g
same,KIDNEY_TOTAL,24 h,2.1 g
same,LIVER,24 h,11.5 g
same,A/G,24 h,2
same,ALP,24 h,915.2 IU/L
same,ALT,24 h,38.6 IU/L
same,AST,24 h,67.6 IU/L
same,BUN,24 h,17.6 mg/dL
same,CRE,24 h,0.5 mg/dL
same,Ca,24 h,11 mg/dL
same,Cl,24 h,103.2 meq/L
same,DBIL,24 h,0 mg/dL
same,GLC,24 h,198 mg/dL
same,IP,24 h,8.4 mg/dL
same,K,24 h,5 meq/L
same,LDH,24 h,106.4 IU/L
same,Na,24 h,137.8 meq/L
same,PL,24 h,167.4 mg/dL
same,RALB,24 h,3.8 g/dL
same,TBIL,24 h,0.5 mg/dL
same,TC,24 h,91 mg/dL
same,TG,24 h,89 mg/dL
same,TP,24 h,5.7 g/dL
same,gamma-GTP,24 h,1.8 IU/L
